Experimental data published in patent publication US8097773B2, “Process for selecting banana clones and banana clones obtained thereby” (Rahan Meristem (1998) Ltd, priority 2004, dated 2012).

Key:
Type in all cases: in vivo, Musa acuminata AAA, cv. 'Grande Naine'
[1] = tested on: Extra dwarf mutant banana Grande Naine plantlets; assay: Influence of GA3 on internode length of in-vitro banana plantlets (GA sensitivity bioassay), Extra dwarf
Method: (§1) Somaclonal variants with both high and low sensitivity to GA were generated as a consequence of an extensive duration in tissue culture. Both ‘off-types’ were detectable by a relatively simple bioassay developed in this laboratory (Table 4). […] On the other hand the ‘Extra Dwarf’ phenotype was insensitive to the presence of GA in the medium.
(§2) Meristem culture was performed on a single ‘Grande Naine’ clone employing a standard protocol used at Rahan Meristem. The meristems were sub-cultured extensively (23 cycles) to induce somaclonal variations. The in vitro plantlets were transferred to a stage III medium containing 10 ppm of gibberellic acid (GA). […] Further analysis of somaclonal variation was carried out in ex-vitro conditions. Following acclimatization, the plants were planted in 5 L pots and placed in a poly-ethylene covered greenhouse for approximately 16 weeks prior to selection of ‘off-types’. Candidate plants showing distinct somaclonal variations were selected and used for further analysis. Stability of the different mutations was monitored following the growth of the selected clones in a commercial plantation in Rosh Hanikra, Israel.

[2] = tested on: Dwarf mutant banana Grande Naine plantlets; assay: Influence of GA3 on internode length of in-vitro banana plantlets (GA sensitivity bioassay), Dwarf
Method: as §1, §2

[3] = tested on: normal in-vitro banana Grande Naine plantlets; assay: Influence of GA3 on internode length of in-vitro banana plantlets (GA sensitivity bioassay), normal; conditions: GA3 10 mg/L in medium, grown 5 weeks, hormone-free control 14.2
Method: as §1, §2

## C=C1C[C@]23C[C@@]1(O)CC[C@H]2[C@@]12C=C[C@H](O)[C@@](C)(C(=O)O1)[C@H]2[C@@H]3C(=O)O [GA3, gibberellic acid]
[1]; 'Extra Dwarf' phenotype, GA in the medium
  sensitivity to GA: insensitive
[1]; Extra dwarf mutant plantlets, GA3 10 mg/L in medium, grown 5 weeks, hormone-free control 9.6
  "internode" length: 9.6 cm·days
[2]; Dwarf plantlets, GA3 10 mg/L in medium, grown 5 weeks, hormone-free control 10.8
  "internode" length: 14.9 b cm
[2]; dwarf genotype, GA in the medium
  sensitivity to GA: showed sensitivity
[3]
  "internode" length: 21.7 a cm
